Patent publication US9302999B2, “Substituted triazoles as herbicides” (E. I. DU PONT DE NEMOURS AND COMPANY, priority 2012, dated 2016)

What was measured:
[1] = tested on: ryegrass, Italian (Italian ryegrass, Lolium multiflorum); test: Test D pre-/postemergence: ryegrass, Italian; assay type: in vivo
Excerpt: (§1) Seeds of plant species selected from bluegrass (annual bluegrass, Poa annua), blackgrass (Alopecurus myosuroides), canarygrass (Phalaris minor), chickweed (common chickweed, Stellaria media), galium (catchweed bedstraw, Galium aparine), bromegrass, downy (downy bromegrass, Bromus tectorum), field poppy (Papaver rhoeas), field violet (Viola arvensis), foxtail, green (green foxtail, Setaria viridis), deadnettle (henbit deadnettle, Lamium amplexicaule), ryegrass, Italian (Italian ryegrass, Lolium multiflorum), kochia (Kochia scoparia), lambsquarters (Chenopodium album), oilseed rape (Brassica napus), pigweed (Amaranthus retroflexus), Russian thistle (Salsola iberica), chamomile (scentless chamomile, Matricaria inodora), speedwell (bird's-eye speedwell, Veronica persica), barley, spring (spring barley, Hordeum vulgare), wheat, spring (spring wheat, Triticum aestivum), buckwheat, wild (wild buckwheat, Polygonum convolvulus), mustard, wild (wild mustard, Sinapis arvensis), oat, wild (wild oat, Avena fatua), radish, wild (wild radish, Raphanus raphanistrum), windgrass (Apera spica-venti), barley, winter (winter barley, Hordeum vulgare), and wheat, winter (winter wheat, Triticum aestivum) were planted into a silt loam soil and treated preemergence with test chemicals formulated in a non-phytotoxic solvent mixture which included a surfactant. At the same time, these same crop and weed species were planted in pots containing the planting medium comprising spaghnum peat moss, vermiculite, wetting agent and starter nutrients and treated with postemergence applications of the test chemicals formulated in the same manner. Plants ranged in height from 2 to 18 cm (1- to 4-leaf stage).
(§2) Treated plants and controls were maintained in a controlled growth environment for 14 to 21 days after which time all species were compared to controls and visually evaluated. Plant response ratings, summarized in Table D, are based on a scale of 0 to 100 where 0 is no effect and 100 is complete control. A dash (-) response means no test result.

[2] = tested on: pigweed, palmer (palmer pigweed, Amaranthus palmeri); test: Test F pre-/postemergence: pigweed, palmer; assay type: in vivo
Excerpt: Seeds of plant species selected from corn (Zea mays), soybean (Glycine max), velvetleaf (Abutilon theophrasti), lambsquarters (Chenopodium album), poinsettia, wild (wild poinsettia, Euphorbia heterophylla), pigweed, palmer (palmer pigweed, Amaranthus palmeri), waterhemp (common waterhemp, Amaranthus rudis), surinam grass (Brachiaria decumbens), crabgrass, Brazil (Brazilian crabgrass, Digitaria horizontalis), panicum, fall (fall panicum Panicum dichotomiflorum), crabgrass, large (large crabgrass, Digitaria sanguinalis), foxtail, giant (giant foxtail, Setaria faberii), foxtail, green (green foxtail Setaria viridis), goosegrass (Eleusine indica), ragweed (common ragweed, Ambrosia elatior), barnyardgrass (Echinochloa crus-galli), sandbur (southern sandbur, Cenchrus echinatus), arrowleaf sida (Sida rhombifolia), ryegrass, Italian (Italian ryegrass, Lolium multiflorum), dayflower, VA (Virginia (VA) dayflower, Commelina virginica), field bindweed (Convolvulus arvensis), cocklebur (common cocklebur, Xanthium strumarium), morningglory (Ipomoea coccinea), nightshade (eastern black nightshade, Solanum ptycanthum), kochia (Kochia scoparia), nutsedge, yellow (yellow nutsedge, Cyperus esculentus), johnsongrass (Sorghum halepense), smartweed (ladysthumb smartweed, Polygonum persicaria), and beggarticks (hairy beggarticks, Bidens pilosa), were planted into a silt loam soil and treated preemergence with test chemicals formulated in a non-phytotoxic solvent mixture which included a surfactant. At the same time, plants selected from these crop and weed species and also pigweed (Amaranthus retroflexus), waterhemp_RES1 (ALS/Triazine resistant common waterhemp, Amaranthus rudis) and waterhemp_RES2 (ALS/HPPD resistant common waterhemp, Amaranthus rudis) were planted in pots containing a planting medium comprising spaghnum peat moss, vermiculite, wetting agent and starter nutrients treated with postemergence applications of some of the test chemicals formulated in the same manner. Plants ranged in height from 2 to 18 cm for postemergence treatments (1- to 4-leaf stage).
as §2, with “greenhouse” for “controlled growth environment”, “days,” for “days”, “E,” for “D,”

[3] = tested on: beggarticks (hairy beggarticks, Bidens pilosa); test: Test F pre-/postemergence: beggarticks; assay type: in vivo
How it was run: (§3)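 Preemergence treatment of seeds sown in silt loam soil, and postemergence treatment of plants 2–18 cm tall (1- to 4-leaf stage), with compounds in non-phytotoxic solvent plus surfactant. Greenhouse 14–21 days, then visual rating versus controls on 0–100 scale (100 = complete control).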

[4] = tested on: barnyardgrass (Echinochloa crus-galli); test: Test F pre-/postemergence: barnyardgrass; assay type: in vivo
How it was run: as §3

[5] = tested on: ryegrass, Italian (Italian ryegrass, Lolium multiflorum); test: Test F pre-/postemergence: ryegrass, Italian; assay type: in vivo
How it was run: as §3

[6] = tested on: barley, spring (spring barley, Hordeum vulgare); test: Test D pre-/postemergence: barley, spring; assay type: in vivo
Excerpt: as §1, §2

[7] = tested on: speedwell (bird's-eye speedwell, Veronica persica); test: Test D pre-/postemergence: speedwell; assay type: in vivo; settings: Preemergence
How it was run: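 Pre- and postemergence herbicide screen. Soil for pre: silt loam; post medium: peat moss, vermiculite, wetting agent, starter nutrients. Plant stage at post: 1- to 4-leaf. Readout: visual % control, 14–21 days.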

[8] = tested on: poinsettia, wild (wild poinsettia, Euphorbia heterophylla); test: Test F pre-/postemergence: poinsettia, wild; assay type: in vivo
How it was run: as §3

[9] = tested on: Waterhemp; test: Test C preemergence: waterhemp; assay type: in vivo, Amaranthus rudis; settings: scale 0 to 100, 0 no effect, 100 complete control
[10] = Postemergence, 31 g ai/ha, scale 0 to 100 (0 no effect, 100 complete control)
[11] = Postemergence, 62 g ai/ha, scale 0 to 100 (0 no effect, 100 complete control)
[12] = Postemergence, 125 g ai/ha, scale 0 to 100, 0 no effect, 100 complete control
[13] = Postemergence, 16 g ai/ha, scale 0 to 100
[14] = Preemergence, 16 g ai/ha, scale 0 to 100, 0 no effect, 100 complete control
[15] = Preemergence, 31 g ai/ha, scale 0 to 100, 0 no effect, 100 complete control
[16] = Preemergence, 62 g ai/ha, scale 0 to 100
[17] = Preemergence, 125 g ai/ha, scale 0 to 100
[18] = Preemergence, 250 g ai/ha, scale 0 to 100
[19] = 16 g ai/ha, scale 0 to 100, 0 no effect, 100 complete control
[20] = 31 g ai/ha, scale 0 to 100, 0 no effect, 100 complete control
[21] = Postemergence, 8 g ai/ha, scale 0 to 100
[22] = Postemergence, 31 g ai/ha, scale 0 to 100
[23] = Postemergence, 62 g ai/ha, scale 0 to 100
[24] = Postemergence, 125 g ai/ha, scale 0 to 100
[25] = Preemergence, 8 g ai/ha, scale 0 to 100, 0 no effect, 100 complete control

Cc1nn(-c2ccc(C(F)(F)F)c(F)c2)nc1Oc1ccnc(C(F)(F)F)c1 [Compound 148]
Plant response rating: Ryegrass, Italian [1, 10]: 15
Plant response rating: Ryegrass, Italian [1, 11]: 20
Plant response rating: Ryegrass, Italian [1, 12]: 20
Plant response rating, Ryegrass, Italian [1, 13]: 5
Plant response rating, Ryegrass, Italian [1, 14]: 0
Plant response rating, Ryegrass, Italian [1, 15]: 5
Plant response rating, Ryegrass, Italian [1, 16]: 5
Plant response rating, Ryegrass, Italian [1, 17]: 35
Plant response rating, Pigweed, Palmer [2, 14]: 0
Plant response rating, Pigweed, Palmer [2, 15]: 90
Plant response rating, Pigweed, Palmer [2, 17]: 100
Plant response rating, Pigweed, Palmer [2, 18]: 100
Plant response rating, Beggarticks [3, 14]: 0
Plant response rating, Beggarticks [3, 15]: 0
Plant response rating, Beggarticks [3, 16]: 0
Plant response rating, Beggarticks [3, 17]: 0
Plant response rating, Beggarticks [3, 18]: 0
Plant response rating, Barnyardgrass [4, 14]: 0
Plant response rating, Barnyardgrass [4, 15]: 0
Plant response rating, Barnyardgrass [4, 16]: 0
Plant response rating, Barnyardgrass [4, 17]: 20
Plant response rating, Barnyardgrass [4, 18]: 98
Plant response rating, Ryegrass, Italian [5, 14]: 0
Plant response rating, Ryegrass, Italian [5, 15]: 0
Plant response rating, Ryegrass, Italian [5, 17]: 95
Plant response rating, Ryegrass, Italian [5, 18]: 100
Plant response rating: Barley, Spring [6, 10]: 15
Plant response rating: Barley, Spring [6, 11]: 20
Plant response rating: Barley, Spring [6, 12]: 25
Plant response rating, Barley, Spring [6, 13]: 10
Plant response rating, Barley, Spring [6, 14]: 0
Plant response rating, Barley, Spring [6, 15]: 0
Plant response rating, Barley, Spring [6, 16]: 5
Plant response rating, Barley, Spring [6, 17]: 5
Plant response rating, Speedwell [7, 19]: 5
Plant response rating, Speedwell [7, 20]: 95
Plant response rating, Speedwell ([7]; 62 g ai/ha, scale 0 to 100): 50
Plant response rating, Speedwell ([7]; 125 g ai/ha, scale 0 to 100): 100
Plant response rating, Poinsettia, Wild [8, 14]: 0
Plant response rating, Poinsettia, Wild [8, 15]: 0
Plant response rating, Poinsettia, Wild [8, 17]: 20
Plant response rating, Poinsettia, Wild [8, 18]: 100

Cc1nn(-c2ccc(F)c(C(F)(F)F)c2)nc1Cc1ccnc(C(F)(F)F)c1 [Compound 156]
Plant response rating, Waterhemp ([9]; 125 g ai/ha): 100
Plant response rating: Ryegrass, Italian [1, 10]: 15
Plant response rating: Ryegrass, Italian [1, 11]: 10
Plant response rating: Ryegrass, Italian [1, 12]: 25
Plant response rating, Ryegrass, Italian [1, 13]: 5
Plant response rating, Ryegrass, Italian [1, 14]: 0
Plant response rating, Ryegrass, Italian [1, 15]: 5
Plant response rating, Ryegrass, Italian [1, 16]: 5
Plant response rating, Ryegrass, Italian [1, 17]: 60
Plant response rating: Barley, Spring [6, 10]: 20
Plant response rating: Barley, Spring [6, 11]: 25
Plant response rating: Barley, Spring [6, 12]: 30
Plant response rating, Barley, Spring [6, 13]: 15
Plant response rating, Barley, Spring [6, 14]: 5
Plant response rating, Barley, Spring [6, 15]: 5
Plant response rating, Barley, Spring [6, 16]: 5
Plant response rating, Barley, Spring [6, 17]: 15
Plant response rating, Speedwell [7, 19]: 10
Plant response rating, Speedwell [7, 20]: 100
Plant response rating, Speedwell ([7]; 62 g ai/ha, scale 0 to 100): 100
Plant response rating, Speedwell ([7]; 125 g ai/ha, scale 0 to 100): 100

FCc1nn(-c2ccc(F)cc2)nc1Oc1ccnc(C(F)(F)F)c1 [Compound 160]
Plant response rating, Waterhemp ([9]; 125 g ai/ha): 100

CCOCc1nn(-c2ccc(F)cc2)nc1Oc1ccnc(C(F)(F)F)c1 [Compound 163]
Plant response rating, Waterhemp ([9]; 125 g ai/ha): 100

CCOc1nn(-c2ccc(Cl)cc2)nc1Cc1ccnc(C(F)(F)F)c1 [Compound 188]
Plant response rating, Waterhemp ([9]; 125 g ai/ha): 100
Plant response rating, Waterhemp ([9]; 250 g ai/ha): 100

CCOc1nn(-c2ccc(F)cc2)nc1Cc1ccnc(C(F)(F)F)c1 [Compound 196, 4-[[5-ethoxy-2-(4-fluorophenyl)-2H-1,2,3-triazol-4-yl]methyl]-2-(trifluoromethyl)pyridine]
Plant response rating: Ryegrass, Italian [1, 10]: 15
Plant response rating: Ryegrass, Italian [1, 11]: 30
Plant response rating: Ryegrass, Italian [1, 12]: 75
Plant response rating, Ryegrass, Italian [1, 13]: 5
Plant response rating, Ryegrass, Italian [1, 14]: 5
Plant response rating, Ryegrass, Italian [1, 15]: 10
Plant response rating, Ryegrass, Italian [1, 16]: 60
Plant response rating, Ryegrass, Italian [1, 17]: 100
Plant response rating, Pigweed, Palmer [2, 21]: 95
Plant response rating, Pigweed, Palmer [2, 13]: 100
Plant response rating, Pigweed, Palmer [2, 22]: 100
Plant response rating, Pigweed, Palmer [2, 23]: 100
Plant response rating, Pigweed, Palmer [2, 24]: 100
Plant response rating, Beggarticks [3, 21]: 50
Plant response rating, Beggarticks [3, 13]: 60
Plant response rating, Beggarticks [3, 22]: 60
Plant response rating, Beggarticks [3, 23]: 60
Plant response rating, Beggarticks [3, 24]: 70
Plant response rating, Beggarticks [3, 25]: 0
Plant response rating, Beggarticks [3, 14]: 50
Plant response rating, Beggarticks [3, 15]: 50
Plant response rating, Beggarticks [3, 16]: 50
Plant response rating, Beggarticks [3, 17]: 65
Plant response rating, Barnyardgrass [4, 21]: 30
Plant response rating, Barnyardgrass [4, 13]: 40
Plant response rating, Barnyardgrass [4, 22]: 60
Plant response rating, Barnyardgrass [4, 23]: 60
Plant response rating, Barnyardgrass [4, 24]: 90
Plant response rating, Barnyardgrass [4, 25]: 0
Plant response rating, Barnyardgrass [4, 14]: 25
Plant response rating, Barnyardgrass [4, 15]: 40
Plant response rating, Barnyardgrass [4, 16]: 70
Plant response rating, Barnyardgrass [4, 17]: 100
Plant response rating, Ryegrass, Italian [5, 21]: 15
Plant response rating, Ryegrass, Italian [5, 13]: 20
Plant response rating, Ryegrass, Italian [5, 22]: 40
Plant response rating, Ryegrass, Italian [5, 23]: 70
Plant response rating, Ryegrass, Italian [5, 24]: 80
Plant response rating, Ryegrass, Italian [5, 25]: 0
Plant response rating, Ryegrass, Italian [5, 14]: 40
Plant response rating, Ryegrass, Italian [5, 15]: 75
Plant response rating, Ryegrass, Italian [5, 17]: 100
Plant response rating: Barley, Spring [6, 10]: 20
Plant response rating: Barley, Spring [6, 11]: 35
Plant response rating: Barley, Spring [6, 12]: 55
Plant response rating, Barley, Spring [6, 13]: 15
Plant response rating, Barley, Spring [6, 14]: 5
Plant response rating, Barley, Spring [6, 15]: 5
Plant response rating, Barley, Spring [6, 16]: 15
Plant response rating, Barley, Spring [6, 17]: 30
Plant response rating, Speedwell [7, 19]: 5
Plant response rating, Speedwell [7, 20]: 100
Plant response rating, Speedwell ([7]; 62 g ai/ha, scale 0 to 100): 100
Plant response rating, Speedwell ([7]; 125 g ai/ha, scale 0 to 100): 100
Plant response rating, Poinsettia, Wild [8, 21]: 75
Plant response rating, Poinsettia, Wild [8, 13]: 85
Plant response rating, Poinsettia, Wild [8, 22]: 95
Plant response rating, Poinsettia, Wild [8, 23]: 95
Plant response rating, Poinsettia, Wild [8, 24]: 95
Plant response rating, Poinsettia, Wild [8, 25]: 0
Plant response rating, Poinsettia, Wild [8, 14]: 50
Plant response rating, Poinsettia, Wild [8, 15]: 50
Plant response rating, Poinsettia, Wild [8, 17]: 75
